Measured values taken from patent US9920010B2, “CXCR7 receptor modulators” (IDORSIA PHARMACEUTICALS LTD, priority 2013, dated 2018).

target: T1, CXCR7 (Homo sapiens, UniProt P25106); assay: PathHunter CHO-K1 CXCR7 b-arrestin recruitment assay (CXCR7 agonistic activity); type: cell-based; conditions: PathHunter CHO-K1 CXCR7 b-arrestin cell line
T1 construct: host or cells: CHO-K1 (PathHunter CHO-K1 CXCR7 b-arrestin cell line, stably transfected)
Method in brief: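 Stable CHO-K1 line with C-terminally ProLink-tagged CXCR7 and β-arrestin 2–EA fusion; β-arrestin recruitment restores β-gal activity, read by chemiluminescence after 1 h RT detection. Cells seeded 24 h, starved in OPTIMEM 3–4 h, exposed to compounds 90 min at 37 °C in HBSS/HEPES/BSA. Geometric-mean EC50 from repeated measurements.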

T1 sequence (P25106 whole entry): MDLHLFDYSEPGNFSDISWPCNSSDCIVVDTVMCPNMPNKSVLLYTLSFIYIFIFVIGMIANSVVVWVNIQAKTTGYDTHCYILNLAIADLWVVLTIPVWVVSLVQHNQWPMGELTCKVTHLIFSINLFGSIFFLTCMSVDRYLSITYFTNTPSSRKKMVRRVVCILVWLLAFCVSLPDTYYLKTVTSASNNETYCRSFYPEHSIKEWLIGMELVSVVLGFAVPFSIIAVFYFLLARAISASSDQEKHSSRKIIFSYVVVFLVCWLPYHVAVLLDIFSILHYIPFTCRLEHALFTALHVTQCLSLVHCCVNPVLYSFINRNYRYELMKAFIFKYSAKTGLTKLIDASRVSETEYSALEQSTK
T1 sequence (P32121 whole entry partner): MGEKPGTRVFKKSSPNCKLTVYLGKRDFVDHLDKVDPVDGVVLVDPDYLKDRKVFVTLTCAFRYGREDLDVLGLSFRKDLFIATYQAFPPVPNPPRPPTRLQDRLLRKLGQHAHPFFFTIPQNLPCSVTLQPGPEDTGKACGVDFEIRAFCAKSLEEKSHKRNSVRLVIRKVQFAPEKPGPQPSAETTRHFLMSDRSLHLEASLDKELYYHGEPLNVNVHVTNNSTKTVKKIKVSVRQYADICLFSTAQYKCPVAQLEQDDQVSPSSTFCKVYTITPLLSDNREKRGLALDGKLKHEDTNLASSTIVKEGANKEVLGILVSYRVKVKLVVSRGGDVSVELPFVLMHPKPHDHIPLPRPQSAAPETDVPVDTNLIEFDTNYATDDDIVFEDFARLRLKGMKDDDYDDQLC

| SMILES | EC50 [µM] |
| --- | --- |
| CCN1CCc2cccc(NCC(=O)N(CCc3cccc(C(F)(F)F)c3)CCN(C)C)c2C1 [compound 539] | 0.115 |
| CCN1CCc2cccc(NCC(=O)N(CCN(C)C)Cc3ccccn3)c2C1 [compound 540] | 0.22 |
| CCN1CCc2cccc(NCC(=O)N(CCN(C)C)Cc3nccs3)c2C1 [compound 541] | 0.175 |
| CN(C)CCN(Cc1ccccc1C(F)(F)F)C(=O)CNc1cccc2c1CN(S(=O)(=O)c1ccccc1)CC2 [compound 545] | 0.08 |
| CCN1CCc2cccc(/C=C/C(=O)N(CCN(C)C)Cc3ccccc3C(F)(F)F)c2C1 [compound 550, (E)-N-(2-Dimethylamino-ethyl)-3-(2-ethyl-1,2,3,4-tetrahydro-isoquinolin-8-yl)-N-(2-trifluoromethyl-benzyl)-acrylamide] | 0.002 |
| CN(C)CCN(Cc1ccccc1C(F)(F)F)C(=O)CNc1cccc2c1CN(C(=O)C(C)(C)C)CC2 [compound 551, N-(2-Dimethylamino-ethyl)-2-[2-(2,2-dimethyl-propionyl)-1,2,3,4-tetrahydro-isoquinolin-8-ylamino]-N-(2-trifluoromethyl-benzyl)-acetamide] | 0.035 |
| CN(C)CCN(Cc1ccccc1C(F)(F)F)C(=O)CNc1cccc2c1CN(C(=O)c1ccccc1)CC2 [compound 552, 2-(2-Benzoyl-1,2,3,4-tetrahydro-isoquinolin-8-ylamino)-N-(2-dimethylamino-ethyl)-N-(2-trifluoromethyl-benzyl)-acetamide] | 0.004 |
| CC(C)OC(=O)N1CCc2cccc(NCC(=O)N(CCN(C)C)Cc3ccccc3C(F)(F)F)c2C1 [compound 553, 8-({[(2-Dimethylamino-ethyl)-(2-trifluoromethyl-benzyl)-carbamoyl]-methyl}-amino)-3,4-dihydro-1H-isoquinoline-2-carboxylic acid isopropyl ester] | 0.014 |
| CN(C)CCN(Cc1ccccc1C(F)(F)F)C(=O)CNc1cccc2c1CN(CC1CCCCC1)CC2 [compound 554, 2-(2-Cyclohexylmethyl-1,2,3,4-tetrahydro-isoquinolin-8-ylamino)-N-(2-dimethylamino-ethyl)-N-(2-trifluoromethyl-benzyl)-acetamide] | 0.005 |
| CCN1CCc2cccc(NCC(=O)N(CCN(C)C)Cc3ccccc3C(F)(F)F)c2C1 [compound 555, N-(2-Dimethylamino-ethyl)-2-(2-ethyl-1,2,3,4-tetrahydro-isoquinolin-8-ylamino)-N-(2-trifluoromethyl-benzyl)-acetamide] | 0.006 |
| CCCN1CCc2cccc(NCC(=O)N(CCN(C)C)Cc3ccccc3C(F)(F)F)c2C1 [compound 556, N-(2-Dimethylamino-ethyl)-2-(2-propyl-1,2,3,4-tetrahydro-isoquinolin-8-ylamino)-N-(2-trifluoromethyl-benzyl)-acetamide] | 0.008 |
| CC(C)CN1CCc2cccc(NCC(=O)N(CCN(C)C)Cc3ccccc3C(F)(F)F)c2C1 [compound 557, N-(2-Dimethylamino-ethyl)-2-(2-isobutyl-1,2,3,4-tetrahydro-isoquinolin-8-ylamino)-N-(2-trifluoromethyl-benzyl)-acetamide] | 0.005 |
| CCC(=O)N1CCc2cccc(NCC(=O)N(CCN(C)C)Cc3ccccc3C(F)(F)F)c2C1 [compound 559, N-(2-Dimethylamino-ethyl)-2-(2-propionyl-1,2,3,4-tetrahydro-isoquinolin-8-ylamino)-N-(2-trifluoromethyl-benzyl)-acetamide] | 0.013 |
| CN(C)CCN(Cc1ccccc1C(F)(F)F)C(=O)CNc1cccc2c1CN(C(=O)C1CC1)CC2 [compound 560, 2-(2-Cyclopropanecarbonyl-1,2,3,4-tetrahydro-isoquinolin-8-ylamino)-N-(2-dimethylamino-ethyl)-N-(2-trifluoromethyl-benzyl)-acetamide] | 0.005 |
| CN(C)CCN(Cc1ccccc1C(F)(F)F)C(=O)CNc1cccc2c1CN(CC(C)(C)C)CC2 [compound 563, N-(2-Dimethylamino-ethyl)-2-[2-(2,2-dimethyl-propyl)-1,2,3,4-tetrahydro-isoquinolin-8-ylamino]-N-(2-trifluoromethyl-benzyl)-acetamide] | 0.026 |
| CCN1CCc2cccc(OCC(=O)N(CCN(C)C)Cc3ccccc3C(F)(F)F)c2C1 [compound 567, N-(2-Dimethylamino-ethyl)-2-(2-ethyl-1,2,3,4-tetrahydro-isoquinolin-8-yloxy)-N-(2-trifluoromethyl-benzyl)-acetamide] | 0.004 |

The remaining molecules from weak to strong by EC50, led by results:

| EC50 [µM] | SMILES |
| --- | --- |
| 0.257 | CCN1CCc2cccc(OC3(C(=O)N(CCN(C)C)Cc4ccccc4C(F)(F)F)CCC3)c2C1 [compound 549] |
| 0.217 | CCN1CCc2cccc(NCC(=O)N(CCc3ccccc3C)CCN(C)C)c2C1 [compound 537] |
| 0.155 | CCN1CCc2cccc(NCC(=O)N(CCc3ccccc3C(F)(F)F)CCN(C)C)c2C1 [compound 538] |
| 0.133 | CCN1CCc2cccc(OC(C)C(=O)N(CCN(C)C)Cc3ccccc3C(F)(F)F)c2C1 (stereo not drawn) [compound 548] |
| 0.113 | CCN1CCc2cccc(NCC(=O)N(CCc3ccccc3)CCN(C)C)c2C1 [compound 542] |
| 0.1 | CN(C)CCN(Cc1ccccc1C(F)(F)F)C(=O)CNc1cccc2c1CN(C(N)=O)CC2 [compound 562] |
| 0.084 | CCN1Cc2c(cccc2NCC(=O)N(CCN(C)C)Cc2ccccc2C(F)(F)F)CC1=O [compound 543] |
| 0.017 | CN(C)CCN(Cc1ccccc1C(F)(F)F)C(=O)CNc1cccc2c1CN(C)CC2 [compound 564, N-(2-Dimethylamino-ethyl)-2-(2-methyl-1,2,3,4-tetrahydro-isoquinolin-8-ylamino)-N-(2-trifluoromethyl-benzyl)-acetamide] |
| 0.007 | CN(C)CCN(Cc1ccccc1C(F)(F)F)C(=O)CNc1cccc2c1CN(C(=O)N1CCCC1)CC2 [compound 561, N-(2-Dimethylamino-ethyl)-2-[2-(pyrrolidine-1-carbonyl)-1,2,3,4-tetrahydro-isoquinolin-8-ylamino]-N-(2-trifluoromethyl-benzyl)-acetamide] |
| 0.004 | O=C(CNc1cccc2c1CN(CC1CC1)CC2)N(CCN1CCCC1)Cc1ccccc1C(F)(F)F [compound 565, 2-(2-Cyclopropylmethyl-1,2,3,4-tetrahydro-isoquinolin-8-ylamino)-N-(2-pyrrolidin-1-yl-ethyl)-N-(2-trifluoromethyl-benzyl)-acetamide] |
| 0.003 | CN(C)CCN(Cc1ncccc1C(F)(F)F)C(=O)CNc1cccc2c1CN(CC1CC1)CC2 [compound 566, 2-(2-Cyclopropylmethyl-1,2,3,4-tetrahydro-isoquinolin-8-ylamino)-N-(2-dimethylamino-ethyl)-N-(3-trifluoromethyl-pyridin-2-ylmethyl)-acetamide] |
